Values quoted from earlier work in patent US20070281345A1, “Enzymatic Method of Making Aldehydes from Fatty Acids” (Archer-Daniels-Midland Company, priority 2006, published 2007).

Conditions: AOCS Method Tg1a-67 (determined) or Cd1c-85 (calculated)

Compound | iodine value
CCCCCCCC/C=C\CCCCCCCC(=O)O [oleic acid] | 89
CCC=CCC=CCC=CCC=CCC=CCC=CCCC(=O)O [docosahexaenoic acid, 4,7,10,13,16,19-docosahexaenoic acid] | greater than the iodine value of linoleic acid
CCCCC/C=C\C/C=C\CCCCCCCC(=O)O [linoleic acid] | 173
CCCCC/C=C\C/C=C\C/C=C\C/C=C\CCCC(=O)O [arachidonic acid] | greater than the iodine value of linoleic acid
CCC=CCC=CCC=CCC=CCC=CCCCC(=O)O [eicosapentaenoic acid, 5,8,11,14,17-eicosapentaenoic acid] | greater than the iodine value of linoleic acid
